Entries after “also recorded” stand apart in the source; their conditions may differ.
What was measured:
[1] = tested on: T3M4 and PT45 pancreatic tumour cells; assay: In vitro co-culture killing assay with CD44v6 CAR-T cells; type: cell-based
Procedure: (§1) CEA or CD44v6 CAR-T cells from healthy donors were co-cultured at 1:5, 1:10, 1:25 E:T ratios with target cells in the absence of IL-7 and IL-15. T cells transduced with an irrelevant CAR (CD19 CAR T) were used as control. After 24 h or 96 h, co-cultures were analysed by FACS using Flow-Count Fluorospheres (BeckmanCoulter) and target cell killing, expressed as Elimination Index, was calculated as follows: 1−(number of residual target cells with experimental CAR-T cells/number of residual target with irrelevant CAR-T cells). In co-culture assays combining CAR-T cells with 2DG, target cells were exposed to 4 mM 2DG for 48 h before being washed, co-cultured with experimental or irrelevant CAR-T cells and analysed as above. In these experiments, the Elimination Index of 2DG alone was calculated as follows: 1−(number of target cells cultivated in medium supplemented with 2DG/number of target cells cultivated in medium alone). Co-culture of Jurkat CAR-TPR and tumour cells was performed at 1:1 E:T ratio. As control, Jurkat CAR-TPR cells were treated with either 50 ng/mL of phorbol myristate acetate (PMA) or 1 g/mL of Ionomycin or a combination of the two. Upregulation of fluorescence was assessed after 24 hours

[2] = tested on: sulfation (PAPS formation); details: chlorate usually 10-30 mM; cited from earlier work
[3] = tested on: T3M4 pancreatic tumour cells; assay: Tumour cell survival (7-AAD) and proliferation (CFSE) after 2DG; type: cell-based; details: low doses of 2DG (4 mM, 48 hours)
Procedure: (§2) For dose assessment, tumour cells were exposed to 2, 4, 8, 16 or 64 mM 2DG (D8375, Sigma-Aldrich) and, after 48 h, absolute cell numbers and percentages of necrotic and proliferating cells were determined by FACS using Flow-Count Fluorospheres (BeckmanCoulter), 7-AAD and CFSE, respectively. For pharmacokinetic studies, tumour cells were treated with 4 mM 2DG and surface N-glycosylation was assessed by PHA-L staining at different time points from treatment or from wash-out to assess the kinetic of de-glycosylation and glycosylation, respectively. For safety studies, buffy coat cells were treated with 4 mM 2DG for 18 hours in the presence of IL-2 (100 IU/mL; Chiron), IL-21 (10 ng/ml; Peprotech) and IL-15 (5 ng/mL; Peprotech) before assessment of the glyco-phenotype by PHA-L staining and of cell viability by 7aad/AnnexinV staining.

[4] = tested on: T3M4 pancreatic tumour cells; assay: Surface expression of beta-1 integrin and CD44v6 by FACS; type: cell-based; details: 4 mM 2DG, 48 hours
Procedure: (§3) The inventors used mAbs specific for human CD44v6 (e-Bioscience), CD3, CD45, NGFR, LAG3 (BD Bioscience), HLA-DR, PD1, TIM3, (Biolegend), CD57 (Miltenyi Biotec). To determine cell vitality, 7-Aminoactinomicin D (7-AAD), AnnexinV or DAPI reagents were used. For LV transduced tumour cells, GFP expression was analysed by direct fluorescence. Samples were run through a fluorescence-activated cell sorting (FACS) Canto flow cytometer (BD Biosciences) and data were analysed with the FlowJo software (Tree Star, Inc.). For branched N-glycans expression analysis, cells were incubated with biotinylated Phaseolus vulgaris Leukoagglutinin (PHA-L; Caderlane) for 1 hour according to manufacturer's instructions, washed and incubated with PE-conjugated streptavidin and analysed by flow cytometry.

[5] = tested on: T3M4 pancreatic tumour cells; assay: PHA-L staining of surface N-glycosylation after 2DG treatment; type: cell-based
Procedure: as §2, §3

[6] = 2DG alone or combined with chemotherapy and radiotherapy; cited from earlier work
[7] = tested on: healthy peripheral blood mononuclear cells (PBMCs); assay: Safety study on buffy coat cells (PHA-L staining, 7aad/AnnexinV); type: cell-based; details: 4 mM 2DG, 18 hours
Procedure: as §2

[8] = tested on: PT45, BxPC3 and T3M4 pancreatic tumour cells; assay: In vitro co-culture killing assay with CEA CAR-T cells; type: cell-based
Procedure: as §1

[9] = tested on: T3M4 pancreatic adenocarcinoma xenograft; assay: In vivo efficacy, pancreatic adenocarcinoma xenograft mouse model; design: species or system NSG mice
Procedure: All experiments were approved by the Institutional Animal Care and Use Committee (IACUC) of San Raffaele University Hospital and Scientific Institute and by the Italian Governmental Health Institute (Rome, Italy). NSG mice (NOD.Cg-Prkdcscid Il2rgtm1Wj1) were obtained from the Jackson Laboratories and kept in a specific-pathogen-free (SPF) facility within individually ventilated cages. […] At day […] and 7 from tumour engraftment, when the tumour burden was high, mice were injected intraperitoneally (i.p.) with 500 mg/kg 2DG. At day 7 mice were infused intravenously (i.v.) with 5×10^5 of either CD44v6 or CD19 CAR T cells as control. In another set of experiments, mice were treated with 500 mg/kg 2DG at day 2 and 3 and received 10×10^5 of either CD44v6 or CD19 CAR T cells at day 3, when the tumour burden was low. Tumour growth was monitored by bioluminescence assay using the QUANTI-Luc detection reagent (InvivoGen) and expressed as relative light units (RLUs), according to the manufacturer instructions. Mice were sacrificed when RLUs were >10^6.

[10] = tested on: human primary keratinocytes; assay: Primary keratinocytes: western blot and co-culture with CD44v6 CAR-T cells; type: cell-based
Procedure: as §1, with “As control, Jurkat CAR-TPR cells were treated with either 50 ng/mL of phorbol myristate acetate (PMA) or 1 g/mL of Ionomycin or a combination of the two.” left out
Tumour cells or healthy primary keratinocytes were treated with either medium alone or supplemented with 4 mM 2DG for 48 h, lysed and subjected to SDS polyacrylamide gel electrophoresys. De-glycosylation was assessed as molecular weight shift. […]

[11] = tested on: T3M4 pancreatic tumour cells; assay: Lactate production assay (glycolysis); type: cell-based; details: low doses of 2DG, 48 h
Procedure: Lactate production was assessed after 48 hours of 2DG treatment at the doses of 2, 4, 8, 16 or 64 mM 2DG using the Lactate-Glo assay (Promega) according to the manufacturer's instructions.

[12] = tested on: T3M4 pancreatic tumour cells; assay: Western blot / biotin-enrichment assay of protein de-glycosylation; type: cell-based
Procedure: […] De-glycosylation was assessed as molecular weight shift. For selective cell membrane protein analysis, biotinilation assay was performed according to manufacturer instructions (Thermo Scientific). Treatment of cell lysates with PNGase F (NEB, P0704) was performed as recommended by the manufacturer's instructions.

[13] = tested on: 5637, H1975 and PC9 cells; assay: In vitro co-culture killing assay, other tumour types; type: cell-based; details: 4 mM 2DG 48 hours before co-culture
Procedure: as §1

[14] = T3M4, tunicamycin 100 ng/ml, 48 h

In the case of tunicamycin, the “CD44v6 CAR-T cell activation (CD69) after tunicamycin treatment of tumour cells” value [1, 14] is reported as “confirmed” and the “elimination of tumour cells by CD44v6 CAR-T cells after tunicamycin treatment” value [1, 14] is reported as “confirmed”.
In the case of `[O-][Cl+2]([O-])O` [chlorate], the inhibition of sulfation [2] is given as > 90%.
For `O=CC[C@@H](O)[C@H](O)[C@H](O)CO` [2DG, 2-Deoxy-D-glucose], the “tumour cell proliferation (CFSE dilution)” value [3] was “no impact”, the “tumour cell viability (7AADpos cells)” value [3] was “no impact on tumour cell viability” and the “surface expression levels of beta-1 integrin and CD44v6” value [4] was “maintained”. For the same compound, the “duration of de-glycosylation after washing out 2DG” value ([5]; 4 mM 2DG up to 48 hours, then wash-out) was 24 h, the “inhibition of N-glycosylation (binding to PHA-L)” value ([5]; 4 mM 2DG, 48 hours) was “reduced binding to PHA-L” and the “time at which de-glycosylation is detectable” value ([5]; 4 mM 2DG, PHA-L staining) was ≤ 5 h. The “safety and tolerability in patients” value [6] was “safe and well tolerated; also recorded: good tolerability”, the “PBMCs glycosylation (PHA-L staining)” value [7] was “failed to interfere with PBMCs glycosylation” and the “viability of CD3+ T cells, CD19+ B cells, CD14+ monocytes and CD15+ granulocytes” value [7] was “did not impact on the viability”. The “cytokine release (IFNγ) by CEA CAR-T cells with 2DG-treated tumour cells” value ([8]; 24 hours after stimulation) was “increased”, the “recognition of CEAneg tumour cells by CEA CAR-T cells after 2DG pre-treatment” value ([8]; CEAneg PT45, 4 mM 2DG 48 hours) was “did not increase recognition” and the “elimination of CEApos tumour cells by CEA CAR-T cells after 2DG pre-treatment” value ([8]; CEApos BxPC3 and T3M4, 4 mM 2DG 48 hours) was “significantly improved the elimination”. For the same compound, the “CEA CAR-T cell activation (CD69, Jurkat TPR) with 2DG-treated tumour cells” value ([8]; T3M4, 4 mM 2DG) was “increased CAR-T cell activation”, the “frequency of tumour-infiltrating CD44v6 CAR-T cells expressing exhaustion and senescence markers” value ([9]; at sacrifice, mice that received 2DG vs not) was “significantly lower frequency of cells expressing exhaustion and senescence markers” and the “antitumor effect of 2DG alone” value ([9]; high tumor burden) was “unable to mediate any antitumor effect alone”. For the same compound, the “less tumor with 2DG in mice receiving CAR-T cells” value ([9]; high tumor burden, at 7d, p<0,05) was 5 fold, the “antitumor benefit of 2DG in mice receiving CD44v6 CAR-T cells” value ([9]; high tumour burden (HTB) setting, 500 mg/kg 2DG i.p., low CAR-T cell dose) was “significantly benefited from 2DG administration” and the “increase of keratinocyte elimination by CD44v6 CAR-T cells” value ([10]; 2DG 48 hours before co-culture) was “failed”. For the same compound, the keratinocyte glycosylation ([10]; 2DG 48 hours, same dose as for tumour cells) was “failed to inhibit keratinocyte glycosylation”, the “inhibition of glycolysis (lactate production)” value [11] was “unable to inhibit glycolysis” and the “inhibition of N-glycosylation (western blot, beta-1 integrin)” value ([12]; 2DG 4 mM or 16 mM, 48 hours, total cell lysates) was “molecular-weight shift of beta-1 integrin”. The “de-glycosylated forms of beta-1 integrin and CD44v6 among surface proteins” value ([12]; biotin-enrichment western blot) was “clearly detected among surface proteins”, the “nature of the combined effect of 2DG and CD44v6 CAR-T cells” value ([1]; PT45 and T3M4) was “synergic” and the “individual antitumor activity of 2DG alone” value ([1]; PT45 and T3M4, 4 mM 2DG 48 h) was “lacking”. For the same compound, the “elimination of tumour cells by CD44v6 CAR-T cells after 2DG pre-treatment” value ([1]; PT45 and T3M4, 4 mM 2DG 48 h before co-culture) was “significantly increasing their elimination” and the “elimination of highly glycosylated tumours by CD44v6 CAR-T cells after 2DG” value [13] was “drastically increase the elimination”.

Reference: patent US20250114386A1, “COMBINATION OF A GLYCOSYLATION INHIBITOR WITH ONE CAR CELL THERAPY FOR TREATING CANCER” (OSPEDALE SAN RAFFAELE S.R.L., priority 2018, published 2025)
